Key:
F9 teratocarcinoma cells = assay: Northern blot of mRAR RNAs in F9 cells after RA treatment (densitometric scanning); format: cell-based, mouse
[1] = test system: hRAR-γ (human retinoic acid receptor γ, hRAR-γD cDNA in pSG5 = hRAR-γ0); assay: RA-dependent transcriptional activation of (TRE₃)₃-tk-CAT reporter by hRAR-γ0 in HeLa cells (CAT activity); format: cell-based; details: data not shown
Description: To test the ability of hRAR-γ to activate transcription, hRAR-γD cDNA was subcloned into the eukaryotic expression vector pSG5 [Green, S., Issemann, I. & Scheer, E. Nucleic Acids Res. 16, 369 (1988)] as described in Example 6, to give hRAR-γ0 which was co-transfected into HeLa cells along with a reporter plasmid, (TRE₃)₃-tk-CAT, which contains a synthetic RA responsive element as described in Example 6. The transfected cells were exposed (24 hour post transfection) to increasing concentrations of RA, and RA-induced activation of transcription was evaluated 48 hours after transfection by determining the CAT activity expressed from the reporter gene.
The entire 1.5 kb insert from the hRAR-γD clone was inserted into the EcoRI site of the eukaryotic expression vector pSG5 [Green, S., Issemann, I. & Scheer, E. Nucleic Acids Res. 16, 369 (1988)], to yield hRAR-γ0. 500 ng of hRAR-γ0 was transfected into HeLa cells along with 2 µg of the (TRE₃)₃-tk-CAT reporter plasmid, 2 µg of a β-galactosidase expressing plasmid pCH110 (to normalize for variations in transfection efficiency) and 15 µg of carrier DNA (BSM13+) as described [Petkovich, M., Brand, N. J., Krust, A. & Chambon, P. Nature 330, 444-450 (1987)]. 24 hours following transfection, the cells were exposed for an additional 24 hour to RA for retinol with concentrations ranging from 10⁻¹¹M to 10⁻⁶. […]

[2] = test system: mRAR-β (mouse retinoic acid receptor β, expression vector mRAR-βO); assay: RA-dependent transcriptional transactivation of (TRE₃)₃-tk-CAT reporter in co-transfected HeLa cells (CAT activity); format: cell-based; details: same concentrations as RA; data not shown
Excerpt: (§1) (mRAR-αO, mRAR-βO and mRAR-γO, respectively) and co-transfected into HeLa cells with a reporter plasmid, (TRE₃)₃-tk-CAT, containing a RA responsive element. […] In Fig. 3 HeLa cells were co-transfected as described in example 2 [Petkovich, M., Brand, N. J., Krust, A. & Chambon, P. Nature 330, 444-450 (1987); Brand, N., Petkovich, M., Krust, A., Chambon, P., de The, H., Marchio, A., Tiollais, P. & Dejean, A. Nature 332, 850-853 (1988)] with pSG5-based expression vectors [Green, S., Issemann, I. & Scheer, E. Nucleic Acids Res. 16, 369 (1988)] containing the entire cDNA of either mRAR-α (mRAR-αO), β (mRAR-βO) or γ (mRAR-γO), and a reporter plasmid, (TRE₃)₃-tk-CAT, carrying a synthetic RA responsive element (RARE). 24 hours after transfection, cells were fed with media containing increasing concentrations of RA as indicated (from 0 to 1x10⁻⁶ M, lanes 1-8, respectively) and harvested 48 hours post-transfection for determination of CAT activity. […] No obvious difference was observed between the dose responsiveness of mRAR-α and β, in contrast with previous results obtained with human chimeric constructs in which the C region of hRAR-α and β was replaced by the corresponding region of the human oestrogen receptor [Brand, N., Petkovich, M., Krust, A., Chambon, P., de The, H., Marchio, A., Tiollais, P. & Dejean, A. Nature 332, 850-853 (1988)]. The reason for these differences is unknown, but may be related to the use of a different and less sensitive responsive element in the present study. Direct determination of the true affinity of RAR-α, β and γ for RA must await direct binding measurements in vitro in the absence of the cellular retinoic acid binding protein.
(§2) HeLa cells (∼ 10⁶ per dish) were co-transfected with 0.5 µg of a given mRAR expression vector, 2 µg of reporter plasmid and 2 µg of pCH110 (Pharmacia, a β-galactosidase expression vector used as an internal control to normalize for variations in transfection efficiency). The total amount of transfected DNA was adjusted to 20µg by addition of carrier DNA (BSM13+). […]

[3] = test system: mRAR-α (mouse retinoic acid receptor α, expression vector mRAR-αO); assay: as above; format: cell-based; details: same concentrations as RA; data not shown
Excerpt: as §1, §2

[4] = test system: mRAR-γ (mouse retinoic acid receptor γ, expression vector mRAR-γO); assay: as above; format: cell-based; details: same concentrations as RA; data not shown
Excerpt: as §1, §2

Compound | fold induction at 0.33 µM (F9 teratocarcinoma cells; Mus musculus, F9, read-out: induction of mRAR-β RNA) | decrease of mRAR-γ RNA (F9 teratocarcinoma cells; RA 3.3x10⁻⁷M, 24 and 48 hours) | potency as activator compared with all-trans or 13-cis retinoic acid [1] | transactivation efficiency compared with RA [2] | transactivation efficiency compared with RA [3] | transactivation efficiency compared with RA [4]
CC1=C(/C=C/C(C)=C/C=C/C(C)=C/C(=O)O)C(C)(C)CCC1 [RA, retinoic acid] | ≥ 30 | 2 fold | – | – | – | –
CC1=C(/C=C/C(C)=C/C=C/C(C)=C/CO)C(C)(C)CCC1 [retinol] | – | – | much less potent activator | much less efficient | much less efficient | much less efficient
